Assay results as given in PubChem BioAssay AID2060621 (Molecular Pharmacology Branch, DTP, NCI, 2025).

System: 324938-238-R-J1-PDC complex spheroids viability
Assay: Anticancer human tumor 324938-238-R-J1-PDC patient-derived bladder carcinoma cell line growth inhibition [CLK]
Conditions: for IC50: curve of first compound; for viability, T/C: stronger effect = lower value
Excerpt: A high-throughput screen of multi-cell type tumor spheroids was designed to identify active combinations of […] and targeted small molecules. Complex spheroids include a stromal component modeled by human endothelial cells (HUVEC) and fibroblasts modeled by human mesenchymal stem cells (MSCs). The concentration ranges selected for each drug and investigational agent were based upon clinically achievable concentrations if the clinical Cmax of the agent was known.
Compounds. The drugs and investigational agents: cirtuvivint (SM08502; NSC835563), CC-671 (NSC850746), vemurafenib (NSC761431), tapotoclax (NSC804041), sotorasib (NSC818433), adagrasib (NSC831453), MRTX-1133 (NSC836407), BAY2416964 (NSC825713), copanlisib (NSC816437), inavolisib (NSC800729), abemaciclib (NSC768073), osimertinib (NSC779217), entinostat (NSC756642), eltanexor (KPT-8602, NSC794443), venetoclax (NSC766270), ceralasertib (NSC777638), bortezomib (NSC756655), olaparib (NSC753686), talazoparib (NSC767125), alisertib (NSC759677), peposertib (NSC802822), gemcitabine (NSC613327), 5-fluorouracil (NSC19893), SN-38 (NSC673596), oxaliplatin (NSC266046), paclitaxel (NSC125973), and doxorubicin (NSC123127), were obtained from the National Cancer Institute (NCI) Developmental Therapeutics Program Chemical Repository. The FDA-approved anticancer drug set is available from the Developmental Therapeutics Program at https://dtp.cancer.gov/organization/dscb/obtaining/available plates.htm. […] The stock solutions were prepared in dimethyl sulfoxide (DMSO, Sigma-Aldrich, St. Louis, MO, cat. D2650), except for the platinum complexes which were prepared in saline (Quality Biological, Gaithersburg, MD, cat. 114-055-101), at 800-fold the tested concentration and stored at -70 degrees C prior to their use. All drugs and investigational agents were tested over a range starting from a high concentration at or near the clinical Cmax and decreasing in half-log increments. If the clinical Cmax for an agent had not been determined, the highest concentration tested was 10 microM.
Cell Culture. All cells were maintained in an incubator at 37 degrees C and 5% CO2 with 95% humidity. The PDC lines were cultured according to standard operating procedures established by the NCI PDMR. Briefly, all PDCs were thawed and cultured in Matrigel-coated flasks prepared with a working solution of 1X Ham's F-12 nutrient mix, without supplementation (Invitrogen, Waltham, MA, cat. 11765054), 100 U/mL penicillin-streptomycin (Invitrogen, cat. 15140122), and 2.5% Matrigel (Corning Inc., Corning, NY, cat. 354248) for the first three passages. The 947758-054-R-J2-PDC line was cultured in 6B/Colon 1A media, which includes advanced DMEM/F-12 (Thermo Fisher Scientific, cat. 12634028), 10 mM HEPES (Thermo Fisher Scientific, cat. 15630080), 1X GlutaMAX supplement (Thermo Fisher Scientific, cat. 35050061), 0.1 mg/mL primocin (InvivoGen, cat. ant-pm-2), 10% defined fetal bovine serum, heat inactivated (HyClone Laboratories Inc., cat. SH30070.03HI), 1.25 mM N-Acetyl-L-cysteine (Sigma-Aldrich, cat. A9165), 10 mM nicotinamide (Sigma-Aldrich, cat. N0636), 1X B-27 supplement (Thermo Fisher Scientific, cat. 17504044), 1X N-2 supplement (Thermo Fisher Scientific, cat. 17502048), and 10 microM Y-27632 dihydrochloride (Tocris Bioscience, cat. 1254). The 876862-298-R-J1-PDC was cultured in 6E media, which includes all 6B/Colon 1A media components plus 50% L-WRN conditioned media (ATCC, cat. CRL-3276), 50 ng/mL recombinant human EGF recombinant protein (hEGF; Thermo Fisher Scientific, cat. PHG0311), 10 ng/mL recombinant human fibroblast growth factor 10 (hGFG-10; PeproTech, cat. 100-26), 1 ng/mL recombinant human fibroblast growth factor 2 (hFGF-2; PeproTech, cat. 100-18B), and 1 µM prostaglandin E2 (PGE2; Tocris, cat. 2296). The 227483-062-R1-J1-PDC line was cultured in Panc media, containing all 6E components except hFGF-2, with the addition of 500 nM SB-431542 (Selleckchem, cat. S1067) and 10 nM gastrin (Tocris, cat. 3006). […]

[1] = second compound 0.0316 µM, first compound 0.0316 µM
[2] = second compound 0.0316 µM, first compound 0.1 µM
[3] = second compound 0.0316 µM, first compound 0.316 µM
[4] = second compound 0.0316 µM, first compound 1 µM
[5] = second compound 0.0316 µM, first compound 3.16 µM
[6] = second compound 0.0316 µM, first compound 10 µM
[7] = second compound 0.1 µM, first compound 0.0316 µM
[8] = second compound 0.1 µM, first compound 0.1 µM
[9] = second compound 0.1 µM, first compound 0.316 µM
[10] = second compound 0.1 µM, first compound 1 µM
[11] = second compound 0.1 µM, first compound 3.16 µM
[12] = second compound 0.1 µM, first compound 10 µM
[13] = second compound 0.316 µM, first compound 0.0316 µM
[14] = second compound 0.316 µM, first compound 0.1 µM
[15] = second compound 0.316 µM, first compound 0.316 µM
[16] = second compound 0.316 µM, first compound 1 µM
[17] = second compound 0.316 µM, first compound 3.16 µM
[18] = second compound 0.316 µM, first compound 10 µM
[19] = second compound 1 µM, first compound 0.0316 µM
[20] = second compound 1 µM, first compound 0.1 µM
[21] = second compound 1 µM, first compound 0.316 µM
[22] = second compound 1 µM, first compound 1 µM
[23] = second compound 1 µM, first compound 3.16 µM
[24] = second compound 1 µM, first compound 10 µM
[25] = second compound 3.16 µM, first compound 0.0316 µM
[26] = second compound 3.16 µM, first compound 0.1 µM
[27] = second compound 3.16 µM, first compound 0.316 µM
[28] = second compound 3.16 µM, first compound 1 µM
[29] = second compound 3.16 µM, first compound 3.16 µM
[30] = second compound 3.16 µM, first compound 10 µM
[31] = second compound 10 µM, first compound 0.0316 µM
[32] = second compound 10 µM, first compound 0.1 µM
[33] = second compound 10 µM, first compound 0.316 µM
[34] = second compound 10 µM, first compound 1 µM
[35] = second compound 10 µM, first compound 3.16 µM
[36] = second compound 10 µM, first compound 10 µM
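Note: viability read after seven days of drug exposure.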
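Throughout, for viability, T/C: 100% = DMSO vehicle control wells.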

CCCS(=O)(=O)Nc1ccc(F)c(C(=O)c2c[nH]c3ncc(-c4ccc(Cl)cc4)cc23)c1F + CN1CCN(c2cc(C(=O)Nc3cc4cc(-c5cnn(C)c5)ccc4cn3)ccn2)CC1
IC50 (second compound 0.0316 µM): > 10000 nM
IC50 (second compound 0.1 µM): 8330 nM
IC50 (second compound 0.316 µM): < 31.6 nM
IC50 (second compound 1 µM): < 31.6 nM
IC50 (second compound 3.16 µM): < 31.6 nM
IC50 (second compound 10 µM): < 31.6 nM
viability, T/C [1]: 76.9%
viability, T/C [2]: 96%
viability, T/C [3]: 92.7%
viability, T/C [4]: 114%
viability, T/C [5]: 102%
viability, T/C [6]: 58.3%
viability, T/C [7]: 61.2%
viability, T/C [8]: 61.3%
viability, T/C [9]: 52%
viability, T/C [10]: 65.7%
viability, T/C [11]: 60.1%
viability, T/C [12]: 39.1%
viability, T/C [13]: 24.1%
viability, T/C [14]: 27.6%
viability, T/C [15]: 24.5%
viability, T/C [16]: 27.2%
viability, T/C [17]: 26%
viability, T/C [18]: 24.8%
viability, T/C [19]: 1.58%
viability, T/C [20]: 1.65%
viability, T/C [21]: 1.22%
viability, T/C [22]: 0.96%
viability, T/C [23]: 1.9%
viability, T/C [24]: 0.6%
viability, T/C [25]: 0.52%
viability, T/C [26]: 0.23%
viability, T/C [27]: 0.3%
viability, T/C [28]: 0.13%
viability, T/C [29]: 0.14%
viability, T/C [30]: 0.21%
viability, T/C [31]: 0.56%
viability, T/C [32]: 0.19%
viability, T/C [33]: 0.19%
viability, T/C [34]: 0.31%
viability, T/C [35]: 0.18%
viability, T/C [36]: 0.62%

COC1C=CCC(C)C(C)S(=O)(=O)NC(=O)c2ccc3c(c2)N(CC2CCC21)CC1(CCCc2cc(Cl)ccc21)CO3 (centres undefined) + CN1CCN(c2cc(C(=O)Nc3cc4cc(-c5cnn(C)c5)ccc4cn3)ccn2)CC1
IC50 (second compound 0.0316 µM): 440 nM
IC50 (second compound 0.1 µM): 292 nM
IC50 (second compound 0.316 µM): < 31.6 nM
IC50 (second compound 1 µM): < 31.6 nM
IC50 (second compound 3.16 µM): < 31.6 nM
IC50 (second compound 10 µM): < 31.6 nM
viability, T/C [1]: 86.6%
viability, T/C [2]: 87.2%
viability, T/C [3]: 57.6%
viability, T/C [4]: 27.6%
viability, T/C [5]: 17.9%
viability, T/C [6]: 11.9%
viability, T/C [7]: 57.9%
viability, T/C [8]: 52.9%
viability, T/C [9]: 50.4%
viability, T/C [10]: 25.9%
viability, T/C [11]: 18.4%
viability, T/C [12]: 13.9%
viability, T/C [13]: 26.2%
viability, T/C [14]: 26%
viability, T/C [15]: 23.1%
viability, T/C [16]: 13.1%
viability, T/C [17]: 10.5%
viability, T/C [18]: 8.58%
viability, T/C [19]: 1.66%
viability, T/C [20]: 1.72%
viability, T/C [21]: 1.35%
viability, T/C [22]: 0.96%
viability, T/C [23]: 0.86%
viability, T/C [24]: 0.63%
viability, T/C [25]: 0.44%
viability, T/C [26]: 0.47%
viability, T/C [27]: 0.28%
viability, T/C [28]: 0.21%
viability, T/C [29]: 0.22%
viability, T/C [30]: 0.36%
viability, T/C [31]: 0.19%
viability, T/C [32]: 0.17%
viability, T/C [33]: 0.21%
viability, T/C [34]: 0.19%
viability, T/C [35]: 0.25%
viability, T/C [36]: 0.25%
